Like-named read-outs stand apart in the source and are kept apart here.
Assays:
[1] = Procedure: FIGS. 30-32 illustrate different transdermal membrane materials being tested with different solvents and solvent compositions. Solutions of water and different alcohols, including isopropanol, ethanol, and methanol were tested. The water to alcohol content was varied between 0/100 and 100/0 (by v/v) and tested with different membrane materials. For the tests 1.6 mL of solution was injected into the area between the transdermal membrane and the vapor permeable membrane. […] The membranes were observed approximately 90 seconds after providing the solvent solution to the space between the transdermal membrane and the vapor permeable membrane. […] Three different transdermal membrane materials were tested including Celgard® 2400 (FIG. 30), Celgard® 2500 (FIG. 31), and Celgard® 3501 (FIG. 32). Celgard® 2400 has an average pore diameter of about 0.041 μm and a porosity of 41%. Celgard® 2500 has an average pore diameter of about 0.064 μm and a porosity of 55%. Celgard® 3501 has an average pore diameter of about 0.064 μm and a porosity of 55%.
[2] = Wetting and permeation of solvent solutions across the transdermal membrane (FIG. 31); assay type: physicochemical; settings: Celgard® 2500; 1.6 mL of solution injected between transdermal membrane and vapor permeable membrane; observed approximately 90 seconds after; v/v

Compound	permeation of the solvent solution across the membrane [1]	permeation of the solvent solution across the membrane [2]
CO [100% methanol, methanol]	Some permeation	Some permeation
O [100% water, water]	no permeation	–

Reference: patent US12011560B2, “Drug delivery methods and systems” (Morningside Venture Investments Limited, priority 2015, dated 2024)
